Read-outs that look alike come from different tables or passages of the source.
Assays:
monkey NPC1L1 = monkey NPC1L1 (Macaca mulatta, UniProt A0MJA5); assay: Fluorescence NPC1L1 binding assay, HEK-293 cells, BODIPY-labeled compound 1; parameters: species or system rhesus monkey; conditions: Monkey NPC1L1, competition with compound 1; read-out: Ki
Experimental: (§1) Cell Culture and Membrane Preparation. Each plasmid pCR3.1 harboring NPC1L1 was prepared using standard molecular biology protocols. Stable cell lines expressing human, rhesus monkey, mouse, rat, hamster, canine or rabbit NPC1L1 were generated using Lipofectamine 2000 transfection reagent in HEK-293 cells according to the manufacturer's protocol. Cells were maintained in DMEM supplemented with 10% FBS, 100 U/ml pen/strep, and 500 μg/ml geneticin at 37° C., 5% CO2. All cell culture reagents were obtained from Invitrogen Life Technologies, (Carlsbad, Calif.). Cell membranes were prepared by lysing cells in 5 mM HEPES with protease inhibitors (Complete™ Protease Inhibitor Cocktail Tablets; Roche Diagnostics Corp., Indianapolis Ind.) for 15 min at 4° C. A membrane pellet was obtained by centrifuging the cell lysates at 12,000×g for 25 min. The membranes were resuspended in 5 mM HEPES with protease inhibitors and triturated with a 21G needle.
(§2) Fluorescence. Cells were plated into 384-well black/clear plates (BD Biosciences, Bedford Mass.) for binding experiments the following day. The media was aspirated. […] Media (20 μl) containing the indicated concentration of compound was then added to the wells. […] The binding reaction was allowed to proceed for 4 hours at 37° C. Subsequently the media was aspirated and the cells washed once with PBS.

canine NPC1L1 = canine NPC1L1 (Canis lupus familiaris, UniProt A0MJA4); assay: as above
Experimental: as §1, §2

hamster NPC1L1 = hamster NPC1L1 (Mesocricetus auratus, UniProt A0MJA8); assay: as above
Experimental: as §1, §2

human NPC1L1 = biological target: T1, human NPC1L1 (Homo sapiens, UniProt Q9UHC9, T1073A); assay: as above; conditions: Human NPC1L1, competition with compound 1; read-out: Ki
T1 construct: expressed in transfected cells
T1 sequence (Q9UHC9 22-1332 isoform Q9UHC9-2 T1046A): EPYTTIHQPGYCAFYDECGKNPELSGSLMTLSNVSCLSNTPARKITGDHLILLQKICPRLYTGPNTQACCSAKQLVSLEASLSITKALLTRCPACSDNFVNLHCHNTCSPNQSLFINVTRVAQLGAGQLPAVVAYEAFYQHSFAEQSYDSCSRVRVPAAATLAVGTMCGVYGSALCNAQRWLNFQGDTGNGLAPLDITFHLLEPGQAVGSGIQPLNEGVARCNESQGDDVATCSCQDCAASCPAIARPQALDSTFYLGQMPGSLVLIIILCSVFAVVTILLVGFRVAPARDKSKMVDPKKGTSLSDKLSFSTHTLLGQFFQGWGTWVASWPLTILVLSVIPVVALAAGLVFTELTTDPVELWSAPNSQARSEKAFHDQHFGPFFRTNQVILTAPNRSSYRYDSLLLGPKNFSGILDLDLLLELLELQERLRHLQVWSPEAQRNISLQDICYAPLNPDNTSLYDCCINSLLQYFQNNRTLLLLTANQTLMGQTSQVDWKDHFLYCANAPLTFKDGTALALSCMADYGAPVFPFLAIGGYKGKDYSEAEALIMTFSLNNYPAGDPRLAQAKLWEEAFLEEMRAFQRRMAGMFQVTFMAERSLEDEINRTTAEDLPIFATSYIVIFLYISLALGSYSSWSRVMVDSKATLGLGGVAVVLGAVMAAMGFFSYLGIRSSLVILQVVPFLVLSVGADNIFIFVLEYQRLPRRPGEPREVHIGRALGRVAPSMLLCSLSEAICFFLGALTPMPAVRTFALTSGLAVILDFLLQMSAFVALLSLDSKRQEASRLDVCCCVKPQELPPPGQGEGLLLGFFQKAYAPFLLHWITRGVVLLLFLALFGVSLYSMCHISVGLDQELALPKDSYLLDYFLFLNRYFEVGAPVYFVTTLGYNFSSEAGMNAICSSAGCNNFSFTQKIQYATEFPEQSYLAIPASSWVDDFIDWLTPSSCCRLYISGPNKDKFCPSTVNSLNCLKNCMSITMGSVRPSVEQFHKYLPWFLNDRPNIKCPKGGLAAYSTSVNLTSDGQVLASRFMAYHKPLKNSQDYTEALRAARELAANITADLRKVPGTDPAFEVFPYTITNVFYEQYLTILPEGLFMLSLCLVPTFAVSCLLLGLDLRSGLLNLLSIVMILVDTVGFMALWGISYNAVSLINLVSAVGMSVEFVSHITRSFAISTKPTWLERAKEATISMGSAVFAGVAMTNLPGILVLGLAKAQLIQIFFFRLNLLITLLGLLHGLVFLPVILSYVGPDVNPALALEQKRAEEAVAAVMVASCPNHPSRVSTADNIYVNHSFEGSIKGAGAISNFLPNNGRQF
Experimental: as §1, §2

rabbit NPC1L1 = rabbit NPC1L1 (Oryctolagus cuniculus, UniProt A0MJA7); assay: as above
Experimental: as §1, §2

rat NPC1L1 = biological target: T2, rat NPC1L1 (Rattus norvegicus, UniProt Q6T3U3, A349V/E317P/G318E/K324N/L297S); assay: as above; conditions: Rat NPC1L1, competition with compound 1; read-out: Ki
T2 construct: expressed in transfected cells
Experimental: as §1, §2

mouse NPC1L1 = biological target: T3, mouse NPC1L1 (Mus musculus, UniProt Q6T3U4, N476K); assay: Fluorescence NPC1L1 binding assay, HEK-293 cells, fluorescent compound 2 as ligand
T3 construct: expressed in transfected cells
Experimental: as §1, §2
In an effort to show binding to mouse NPC1L1, several related ezetimibe analogs were examined as possible alternatives to fluorescently-labeled (BODIPY) ezetimibe glucuronide (compound 1) in the binding assay. Compound 2, which is a fluorescently labeled synthetic precursor for fluorescently-labeled (BODIPY) ezetimibe glucuronide (compound 1; Burnett et al., Bioorganic and Medicinal Chemistry Letters 12:315-318 (2002)), was identified as a viable option for detection of mouse NPC1L1 binding. Compound 2 contains a methyl ester substitution for the carboxylic acid on the glucuronide portion of the molecule (compound structures shown in FIG. 4A).

cholesterol absorption [1] = assay: In vivo potency of ezetimibe (ED50); conditions: Primates, Monkey
cholesterol absorption [2] = assay: In vivo potency of ezetimibe (ED50); conditions: Mesocricetus auratus, Hamster
cholesterol absorption [3] = assay: In vivo potency of ezetimibe (ED50); conditions: Canis lupus familiaris, Canine
cholesterol absorption [4] = assay: In vivo potency of ezetimibe (ED50); conditions: Rat
cholesterol absorption [5] = assay: In vivo potency of ezetimibe (ED50); conditions: Mouse
[6] = test system: ^14C-cholesterol absorption; assay: Acute cholesterol absorption assay; type: in vivo; conditions: rat, intraduodenal; read-out: rat ED50, inhibition of cholesterol absorption
Experimental: Acute cholesterol absorption assay. ^14C-cholesterol absorption was determined acutely in rats using conditions previously described (Van Heek et al., J. Pharmacol. Exp. Ther. 283: 157-163 (1997)). Compounds were dissolved in rat bile and delivered (1.0 ml) intraduodenally by bolus injection via an intestinal catheter, followed by 1.0 ml saline rinse (0.9%). Following a 30 min incubation, a cholesterol emulsion containing 3 mg cholesterol and 2 μCi ^14C-cholesterol (3 ml) was delivered to each rat as a bolus via intestinal catheter, followed by 1 ml saline rinse. Animals were sacrificed 90 min later and ^14C-cholesterol levels in plasma, liver, intestinal contents, and intestinal wall were determined.

[7] = test system: plasma and liver cholesterol; assay: Percent cholesterol lowering in plasma and liver; type: in vivo; conditions: hamster
[8] = following oral administration; cited from earlier work
[9] = intraduodenal delivery, first pass metabolism in the intestine; cited from earlier work

Ki (monkey NPC1L1): 900 nM
Ki (canine NPC1L1; Canine NPC1L1, competition with compound 1, read-out: Ki): 770 nM
Ki (canine NPC1L1; Table 3, Dog, read-out: Ki Dog NPC1L1): 770 nM
Ki (hamster NPC1L1; Hamster NPC1L1, competition with compound 1, read-out: Ki): 1530 nM
Ki (hamster NPC1L1; Table 3, Hamster, read-out: Ki Hamster NPC1L1): 1530 nM
Ki (human NPC1L1): 2240 nM
Ki (rabbit NPC1L1; Rabbit NPC1L1, competition with compound 1, read-out: Ki): 2120 nM
Ki (rabbit NPC1L1; Table 3, Rabbit, read-out: Ki Rabbit NPC1L1): 2100 nM
Ki (rat NPC1L1): 970 nM
Ki (mouse NPC1L1; Mouse NPC1L1, competition with compound 2, read-out: Ki): 5400 nM
Ki (mouse NPC1L1; Table 3, Mouse, read-out: Ki Mouse NPC1L1): 9000 nM
Structure (SMILES): O=C1[C@H](CC[C@H](O)c2ccc(F)cc2)[C@@H](c2ccc(O)cc2)N1c1ccc(F)cc1 [compound 3, ezetimibe]
ED50 (cholesterol absorption [1]): 0.0005 mg/kg
ED50 (cholesterol absorption [2]): 0.04 mg/kg
ED50 (cholesterol absorption [3]): 0.007 mg/kg
ED50 (cholesterol absorption [4]): 0.03 mg/kg
ED50 (cholesterol absorption [5]): 0.7 mg/kg
ED50 [6]: 0.0016 mg/kg
cholesterol lowering Liver ([7]; liver): 96%
cholesterol lowering Plasma ([7]; plasma): 26%
fraction of ezetimibe glucuronidated [8]: 90%
fraction of compound in portal plasma that is the glucuronide compound 4 [9]: > 95%
